Assay [1] addresses T1, Adenosine A2a receptor (Homo sapiens, UniProt P29274).
T1 construct: expressed in transfected cells; host or cells: CHO cell membranes
Briefly: Adenosine receptor TR-FRET binding assay, A2a. The following applies: displacement of 100 nM CA200645, CHO cell membranes. On the procedure:
(§1) All FRET binding experiments were conducted at room temperature in white 384-well plates, in assay binding buffer containing 1× LabMed (Cisbio, France), 100 μg/mL saponin, 1% DMSO and 0.02% pluronic acid. Binding of the fluorescently labelled Adenosine receptor antagonist XAC (CA200645, FRET acceptor) to terbium-labelled A1, A2a, A2b and A3 adenosine receptors (FRET donors) was detected by time-resolved FRET due to the close proximity of the donor and acceptor in a binding event. To investigate the ability of unlabelled test compounds to bind to Adenosine A1, A2a, A2b and A3 receptors, dose response curves were constructed that determined the ability of a range of concentrations to inhibit the binding of 30 nM CA200645 to the A2b receptor and 100 nM CA200645 to the A1, A2a, and A3 receptor.
(§2) Serial dilution (1:3 dilutions) of test compounds in neat DMSO and transfer of a 400 nL sample of test compound into the assay plate was carried out using the Mosquito (TTP Labtech, UK). The compound samples were incubated for 2 hours at room temperature with a fixed concentration of CA200645 defined for each receptor (see above) and CHO cell membranes containing the human Adenosine A1 (0.5 μg/well), A2a (0.3 μg/well), A2b (1 μg/well) or A3 (1 μg/well) receptor in 40 μL of assay buffer. Total and non-specific binding of CA200645 was determined in the absence and presence of 10 μM XAC, respectively.
(§3) Following 2 hours incubation, the level of CA200645 binding was detected on a Pherastar FSX (BMG Labtech, Germany) using standard TR-FRET settings. The terbium donor was excited with three laser flashes at a wavelength of 337 nm, and donor and acceptor emission was detected at 620 nm and 665 nm wavelengths, respectively. FRET ratios were obtained by multiplying the acceptor/donor ratio value by 10,000. Specific binding was determined by subtracting the non-specific binding FRET ratio from the total binding FRET ratio. Compound IC50 curves were analysed using GraphPad Prism 7.0 (GraphPad, USA) and Ki affinity values were determined from the obtained […] values using the method of Cheng and Prusoff.

Assay [2] addresses T2, Adenosine A2b receptor (Homo sapiens, UniProt P29275).
T2 construct: expressed in transfected cells; host or cells: CHO cell membranes
T2 sequence (P29275 1-332): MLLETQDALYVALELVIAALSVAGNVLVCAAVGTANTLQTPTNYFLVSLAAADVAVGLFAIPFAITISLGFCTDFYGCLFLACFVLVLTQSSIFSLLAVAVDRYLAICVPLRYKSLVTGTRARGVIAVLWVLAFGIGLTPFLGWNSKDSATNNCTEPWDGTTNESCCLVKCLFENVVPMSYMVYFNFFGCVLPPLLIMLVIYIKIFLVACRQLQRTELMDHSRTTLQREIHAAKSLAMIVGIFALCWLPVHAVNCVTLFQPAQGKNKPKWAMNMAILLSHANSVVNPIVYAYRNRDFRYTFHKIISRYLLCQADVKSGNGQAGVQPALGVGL
Description: Adenosine receptor TR-FRET binding assay, A2b. The following applies: Table 9, further testing; displacement of 30 nM CA200645, CHO cell membranes. The procedure:
as §1, §2, §3

The target of assay [3] is T3, Adenosine A1 receptor (Homo sapiens, UniProt P30542).
T3 construct: expressed in transfected cells; host or cells: CHO cell membranes
T3 sequence (P30542 1-326): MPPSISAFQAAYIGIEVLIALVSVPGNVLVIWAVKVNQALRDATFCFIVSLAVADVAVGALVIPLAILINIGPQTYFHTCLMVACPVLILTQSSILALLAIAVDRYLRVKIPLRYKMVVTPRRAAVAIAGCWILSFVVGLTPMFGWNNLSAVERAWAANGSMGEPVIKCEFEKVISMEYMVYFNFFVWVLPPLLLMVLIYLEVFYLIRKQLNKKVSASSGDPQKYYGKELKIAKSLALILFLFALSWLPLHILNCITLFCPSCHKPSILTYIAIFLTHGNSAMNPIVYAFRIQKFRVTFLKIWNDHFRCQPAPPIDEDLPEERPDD
Description: Adenosine receptor TR-FRET binding assay, A1. The following applies: Table 9, further testing; displacement of 100 nM CA200645, CHO cell membranes. On the procedure:
as §1, §2, §3

Molecules are shown by their SMILES.

Ki data for 27 molecules are collected here from patent US20200339548A1, “PYRIMIDINE DERIVATIVES AND THEIR USE FOR THE TREATMENT OF CANCER” (Adorx Therapeutics Limited, priority 2017, published 2020).

T1 sequence (P29274 whole entry): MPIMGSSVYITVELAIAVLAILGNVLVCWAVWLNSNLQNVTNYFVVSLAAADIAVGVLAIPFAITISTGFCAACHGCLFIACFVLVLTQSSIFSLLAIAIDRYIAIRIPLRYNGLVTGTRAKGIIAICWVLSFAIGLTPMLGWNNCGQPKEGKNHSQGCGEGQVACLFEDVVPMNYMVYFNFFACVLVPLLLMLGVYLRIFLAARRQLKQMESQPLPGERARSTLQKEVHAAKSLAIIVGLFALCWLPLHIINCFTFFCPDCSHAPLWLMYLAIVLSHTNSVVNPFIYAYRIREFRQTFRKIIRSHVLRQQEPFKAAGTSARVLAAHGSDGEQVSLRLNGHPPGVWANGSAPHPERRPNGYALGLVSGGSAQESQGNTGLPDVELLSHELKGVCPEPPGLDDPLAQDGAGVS

`Nc1nc(-c2ccco2)ncc1C(=O)NCc1ncccn1` [Example 5.58, 4-Amino-2-(2-furyl)-N-(pyrimidin-2-ylmethyl)pyrimidine-5-carboxamide]: the Ki in assay [1] (Table 9, further testing) was 105 nM; in assay [2], 2120 nM. As for `Cc1ccccc1CNC(=O)c1cnc(-c2cccc(F)c2)nc1N` [Example 5.10, 4-Amino-2-(3-fluorophenyl)-N-(o-tolylmethyl)pyrimidine-5-carboxamide], the Ki in assay [1] (Table 8, Cheng and Prusoff) amounted to 150 nM; in assay [1] (Table 9, further testing) it was 150 nM; in assay [2] it was 10000 nM.

Turning to `Cc1cccnc1CNC(=O)c1cnc(-c2ccccc2F)nc1N` [Example 9, 4-Amino-2-(2-fluorophenyl)-N-[(3-methyl-2-pyridyl)methyl]pyrimidine-5-carboxamide], the Ki in assay [1] (Table 8, Cheng and Prusoff) stood at 312 nM; in assay [1] (Table 9, further testing), 312 nM. On to `C[C@@H](NC(=O)c1cnc(-c2cccc(F)c2)nc1N)c1ccccc1` [Example 5, 4-Amino-2-(3-fluorophenyl)-N-[(1R)-1-phenylethyl]pyrimidine-5-carboxamide], for which the Ki in assay [1] (Table 8, Cheng and Prusoff) was 329 nM; in assay [1] (Table 9, further testing), 329 nM. Consider `CC(C)CNC(=O)c1c(N)nc(-c2cccc(C#N)c2)nc1OCCF` [Example 24.2, 4-Amino-2-(3-cyanophenyl)-6-(2-fluoroethoxy)-N-isobutyl-pyrimidine-5-carboxamide], for which the Ki in assay [1] (Table 9, further testing) was 2 nM.

As for `CCCCNC(=O)c1c(N)nc(-c2cccc(C#N)c2)nc1OCCF` [Example 24.3, 4-Amino-N-butyl-2-(3-cyanophenyl)-6-(2-fluoroethoxy)pyrimidine-5-carboxamide], the Ki in assay [1] (Table 9, further testing) came out at 0.9 nM.

For `Cn1ccnc1CNC(=O)c1cnc(-c2ccco2)nc1N` [Example 5.37, 4-Amino-2-(2-furyl)-N-[(1-methylimidazol-2-yl)methyl]pyrimidine-5-carboxamide], the Ki in assay [1] (Table 9, further testing) was 16 nM; in assay [2] it was 1600 nM.

Turning to `CC(=O)NCCNc1nc(-c2ccco2)nc(N)c1C(=O)NCc1ncccc1C` [Example 22, 4-(2-Acetamidoethylamino)-6-amino-2-(2-furyl)-N-[(3-methyl-2-pyridyl)methyl]pyrimidine-5-carboxamide], the Ki was found to be 6.8 nM in assay [1] (Table 9, further testing) and 598 nM in assay [3].

Consider `Nc1nc(-c2ccco2)ncc1C(=O)NCc1ccc2cnccc2c1` [Example 5.47, 4-Amino-2-(2-furyl)-N-(6-isoquinolylmethyl) pyrimidine-5-carboxamide], for which the Ki in assay [1] (Table 9, further testing) was 230 nM; in assay [3], 4770 nM.

In the case of `CC(C)NC(=O)c1c(N)nc(-c2cccc(C#N)c2)nc1OCCF` [Example 24, 4-Amino-2-(3-cyanophenyl)-6-(2-fluoroethoxy)-N-isopropyl-pyrimidine-5-carboxamide], in assay [1] (Table 9, further testing), the Ki amounted to 3.3 nM.

In the case of `Nc1nc(-c2ccco2)ncc1C(=O)N[C@H]1CCc2ccc(F)cc21` [Example 5.42, 4-Amino-N-[(1S)-6-fluoroindan-1-yl]-2-(2-furyl)pyrimidine-5-carboxamide], the Ki in assay [1] (Table 9, further testing) amounted to 53 nM. Regarding `Nc1nc(-c2cccc(F)c2)ncc1C(=O)NCc1ncccc1C(F)(F)F` [Example 5.6, 4-Amino-2-(3-fluorophenyl)-N-[[3-(trifluoromethyl)-2-pyridyl]methyl]pyrimidine-5-carboxamide], the Ki turned out to be 29 nM in assay [1] (Table 8, Cheng and Prusoff); 29 nM in assay [1] (Table 9, further testing); 622 nM in assay [2]. As to `CN(Cc1ccccc1)C(=O)c1cnc(-c2ccco2)nc1N` [Example 5.22], the Ki turned out to be 871 nM in assay [1] (Table 8, Cheng and Prusoff); 871 nM in assay [1] (Table 9, further testing); 4240 nM in assay [3]. Regarding `Nc1nc(-c2ccco2)ncc1C(=O)NC1CCCc2cccnc21` (stereo not drawn) [Example 5.49, 4-Amino-2-(2-furyl)-N-(5,6,7,8-tetrahydroquinolin-8-yl)pyrimidine-5-carboxamide], the Ki in assay [1] (Table 9, further testing) came to 159 nM. Take `NC(=O)c1nnc(-c2cccc(F)c2)nc1N` [Example 6, 5-Amino-3-(3-fluorophenyl)-1,2,4-triazine-6-carboxamide]: the inhibition constant Ki in assay [1] (Table 8, Cheng and Prusoff) is 556 nM; in assay [1] (Table 9, further testing), 556 nM. Turning to `CC(C)n1ncnc1CNC(=O)c1cnc(-c2ccco2)nc1N` [Example 5.27, 4-Amino-2-(2-furyl)-N-[(2-isopropyl-1,2,4-triazol-3-yl)methyl]pyrimidine-5-carboxamide], the Ki is 17 nM in assay [1] (Table 8, Cheng and Prusoff); 17 nM in assay [1] (Table 9, further testing); 2680 nM in assay [3]. In the case of `Cc1cccnc1CNC(=O)c1c(N)nc(-c2ccco2)nc1OCCC1CCCCN1` (stereo not drawn) [Example 23, 4-Amino-2-(2-furyl)-N-[(3-methyl-2-pyridyl)methyl]-6-[2-(2-piperidyl)ethoxy]pyrimidine-5-carboxamide], the Ki was 864 nM in assay [1] (Table 9, further testing) and 8530 nM in assay [3]. As for `CCCNC(=O)c1c(N)nc(-c2cccc(C#N)c2)nc1OCCF` [Example 24.1, 4-Amino-2-(3-cyanophenyl)-6-(2-fluoroethoxy)-N-propyl-pyrimidine-5-carboxamide], the Ki in assay [1] (Table 9, further testing) was determined as 5.7 nM. With `Nc1nc(-c2ccco2)ncc1C(=O)NCc1ccccc1C(F)(F)F` [Example 5.55, 4-Amino-2-(2-furyl)-N-[[2-(trifluoromethyl)phenyl]methyl]pyrimidine-5-carboxamide], in assay [1] (Table 9, further testing), the Ki worked out at 21 nM. Take `Nc1nc(-c2ccco2)ncc1C(=O)NCc1ccc(Cl)cc1Cl` [Example 5.19, 4-Amino-N-[(2,4-dichlorophenyl)methyl]-2-(2-furyl)pyrimidine-5-carboxamide]: the Ki is 15 nM in assay [1] (Table 8, Cheng and Prusoff); 15 nM in assay [1] (Table 9, further testing). On to `Nc1nc(-c2cccc(F)c2)ncc1C(=O)NCc1ncccn1` [Example 5.5, 4-Amino-2-(3-fluorophenyl)-N-(pyrimidin-2-ylmethyl)pyrimidine-5-carboxamide], for which the Ki stood at 278 nM in assay [1] (Table 8, Cheng and Prusoff); 278 nM in assay [1] (Table 9, further testing). Regarding `CN(C)CCNC(=O)c1c(N)nc(-c2cccc(C#N)c2)nc1OCCF` [Example 24.5, 4-Amino-2-(3-cyanophenyl)-N-[2-(dimethylamino)ethyl]-6-(2-fluoroethoxy)pyrimidine-5-carboxamide], in assay [1] (Table 9, further testing), the Ki is 29 nM. With `Cc1cccnc1CNC(=O)c1cnc(-n2cccn2)nc1N` [Example 15, 4-Amino-N-[(3-methyl-2-pyridyl)methyl]-2-pyrazol-1-yl-pyrimidine-5-carboxamide], the Ki in assay [1] (Table 8, Cheng and Prusoff) came out at 265 nM; in assay [1] (Table 9, further testing) it was 265 nM. For the molecule `Cc1ccc(CNC(=O)c2cnc(-c3ccco3)nc2N)cc1` [Example 11.1, 4-Amino-2-(2-furyl)-N-(p-tolylmethyl)pyrimidine-5-carboxamide], the Ki in assay [1] (Table 8, Cheng and Prusoff) came to 31 nM; in assay [1] (Table 9, further testing), 31 nM; in assay [3], 2380 nM.

As for `Nc1nc(-c2ccco2)ncc1C(=O)NCc1ncco1` [Example 5.45, 4-Amino-2-(2-furyl)-N-(oxazol-2-ylmethyl)pyrimidine-5-carboxamide], in assay [1] (Table 9, further testing), the Ki stood at 123 nM. On to `COc1ccc(CNC(=O)c2cnc(-c3ccco3)nc2N)cc1` [Example 5.11, 4-Amino-2-(2-furyl)-N-[(4-methoxyphenyl)methyl]pyrimidine-5-carboxamide], for which the Ki worked out at 495 nM in assay [1] (Table 8, Cheng and Prusoff); 495 nM in assay [1] (Table 9, further testing).

`Cc1cccnc1CNC(=O)c1cnc(-c2ncco2)nc1N` [Example 16, 4-Amino-N-[(3-methyl-2-pyridyl)methyl]-2-oxazol-2-yl-pyrimidine-5-carboxamide]: the Ki in assay [1] (Table 8, Cheng and Prusoff) was 34 nM; in assay [1] (Table 9, further testing), 34 nM; in assay [3], 5650 nM.
